Results: patent publication US10364245B2 (CHIESI FARMACEUTICI S.p.A., priority 2017, dated 2019)
Structures can show the parent of a compound that is named as a salt.

Tests used:
[1] = tested on: Peripheral Blood Mononuclear Cells (PBMCs), TNFα release; assay: LPS-stimulated PBMC TNFα release assay; format: cell-based; details: human PBMC, LPS (10 ng/ml), 18 h, compound 1 h before LPS; read-out: LPS-stimulated PBMC TNFα release inhibition
How it was run: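 TNFα in cell-free supernatant, read on MSD plates, gave % inhibition curves and IC50 (≥3 separate experiments). Healthy-donor PBMCs had 1 h compound exposure at 37 °C in 1% FBS medium, then 18 h stimulation with 10 ng/ml LPS, after a 3 h serum-free rest.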

[2] = target: T1, p38 alpha (Homo sapiens, UniProt Q16539); assay: P38 alpha enzyme inhibition assay (Alphascreen kinase activity assay); format: biochemical; details: 100 pM p38 alpha, 2 hours preincubation at 25° C., 250 μM ATP, ATF-2 fusion protein; read-out: p38α inhibition
T1 construct: purchased Invitrogen PV3304
How it was run: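 Phosphorylation of ATF-2 fusion protein (0.3 μg/ml) read by AlphaScreen with anti-phospho-ATF2 antibody after 1 h kinase reaction at 25 °C, initiated by 250 μM ATP. Compounds first incubated 2 h at 25 °C with 100 pM p38 alpha in pH 7.5 HEPES buffer, 1% DMSO. IC50 derived from concentration-response data.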

T1 sequence (Q16539 whole entry, the tested form may be a part): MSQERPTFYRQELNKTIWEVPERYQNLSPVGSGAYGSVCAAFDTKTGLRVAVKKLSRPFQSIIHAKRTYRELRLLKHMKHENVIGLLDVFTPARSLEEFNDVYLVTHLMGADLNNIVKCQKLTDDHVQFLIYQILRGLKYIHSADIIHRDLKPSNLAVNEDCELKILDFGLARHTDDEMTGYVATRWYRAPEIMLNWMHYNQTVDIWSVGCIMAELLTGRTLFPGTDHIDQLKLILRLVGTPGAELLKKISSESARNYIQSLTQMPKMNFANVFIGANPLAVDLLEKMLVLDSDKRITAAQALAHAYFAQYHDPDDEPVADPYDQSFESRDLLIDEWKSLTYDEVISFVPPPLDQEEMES

COCC(C)(C)c1nnc2ccc(O[C@@H]3CC[C@H](NC(=O)Nc4cc(C(C)(C)C)nc(C(=O)NCCN5CCOCC5)n4)c4ccccc43)cn12 [Example 97, 4-(tert-butyl)-6-(3-((1S,4R)-4-((3-(1-methoxy-2-methylpropan-2-yl)-[1,2,4]triazolo[4,3-a]pyridin-6-yl)oxy)-1,2,3,4-tetrahydronaphthalen-1-yl)ureido)-N-(2-morpholinoethyl)-pyrimidine-2-carboxamide]
IC50 [1]: > 5 nM
IC50 [2]: < 1 nM

CC[C@H](C)c1nnc2ccc(O[C@@H]3CC[C@H](NC(=O)Nc4cc(C(C)(C)C)nc(C(=O)NCCN(C)C)n4)c4ccccc43)cn12 [Example 100, 4-(tert-butyl)-6-(3-((1S,4R)-4-((3-((S)-sec-butyl)-[1,2,4]triazolo[4,3-a]pyridin-6-yl)oxy)-1,2,3,4-tetrahydronaphthalen-1-yl)ureido)-N-(2-(dimethylamino)ethyl)-pyrimidine-2-carboxamide]
IC50 [1]: 1 to 5 nM
IC50 [2]: < 1 nM

CCC(CC)c1nnc2ccc(O[C@@H]3CC[C@H](NC(=O)Nc4cc(C(C)(C)C)nc(C(=O)NCCN5CC(OC)C5)n4)c4ccccc43)cn12 [Example 6, 4-(tert-Butyl)-N-(2-(3-methoxyazetidin-1-yl)ethyl)-6-(3-((1S,4R)-4-((3-(pentan-3-yl)-[1,2,4]triazolo[4,3-a]pyridin-6-yl)oxy)-1,2,3,4-tetrahydronaphthalen-1-yl)ureido)pyrimidine-2-carboxamide]
IC50 [1]: 1 to 5 nM
IC50 [2]: < 1 nM

CN(CCO)CCNC(=O)c1cc(NC(=O)N[C@H]2CC[C@@H](Oc3ccc4nnc(C(C)(C)C)n4c3)c3ccccc32)cc(C(C)(C)C)n1 [Example 188, 6-(tert-butyl)-4-(3-((1S,4R)-4-((3-(tert-butyl)-[1,2,4]triazolo[4,3-a]pyridin-6-yl)oxy)-1,2,3,4-tetrahydronaphthalen-1-yl)ureido)-N-(2-((2-hydroxyethyl)(methyl)-amino)ethyl)picolinamide]
IC50 [1]: 1 to 5 nM
IC50 [2]: < 1 nM

COCC(C)(C)c1nnc2ccc(O[C@@H]3CC[C@H](NC(=O)Nc4cc(C(=O)NCC(C)(C)N(C)C)nc(C(C)(C)C)c4)c4ccccc43)cn12 [Example 196, 6-(tert-butyl)-N-(2-(dimethylamino)-2-methylpropyl)-4-(3-((1S,4R)-4-((3-(1-methoxy-2-methylpropan-2-yl)-[1,2,4]triazolo[4,3-a]pyridin-6-yl)oxy)-1,2,3,4-tetrahydronaphthalen-1-yl)ureido)picolinamide]
IC50 [1]: > 5 nM
IC50 [2]: 1 to 10 nM

CCN(C)CCNC(=O)c1cc(NC(=O)N[C@H]2CC[C@@H](Oc3ccc4nnc(N(CC)CC)n4c3)c3ccccc32)cc(C(C)(C)C)n1 [Example 205, 6-(tert-Butyl)-4-(3-((1S,4R)-4-((3-(diethylamino)-[1,2,4]triazolo[4,3-a]pyridin-6-yl)oxy)-1,2,3,4-tetra-hydronaphthalen-1-yl)ureido)-N-(2-(ethyl(methyl)amino)-ethyl)picolinamide formate salt]
IC50 [1]: 1 to 5 nM
IC50 [2]: < 1 nM

CCC(CC)c1nnc2ccc(O[C@@H]3CC[C@H](NC(=O)Nc4cc(C(C)(C)C)nc(C(=O)NCCN(C)CCOC)n4)c4ccccc43)cn12 [Example 73, 4-(tert-butyl)-N-(2-((2-methoxyethyl)(methyl)amino)ethyl)-6-(3-((1S,4R)-4-((3-(pentan-3-yl)-[1,2,4]triazolo[4,3-a]pyridin-6-yl)oxy)-1,2,3,4-tetrahydronaphthalen-1-yl)ureido)pyrimidine-2-carboxamide]
IC50 [1]: 1 to 5 nM
IC50 [2]: < 1 nM

CCN(C)CCNC(=O)c1nc(NC(=O)N[C@H]2CC[C@@H](Oc3ccc4nnc(C(C)(C)C)n4c3)c3ccccc32)cc(C(C)(C)C)n1 [Example 114, 4-(tert-butyl)-6-(3-((1S,4R)-4-((3-(tert-butyl)-[1,2,4]triazolo[4,3-a]pyridin-6-yl)oxy)-1,2,3,4-tetrahydronaphthalen-1-yl)ureido)-N-(2-(ethyl(methyl)amino)-ethyl)pyrimidine-2-carboxamide]
IC50 [1]: < 1 nM
IC50 [2]: < 1 nM

CN1CCC[C@@]1(C)c1nnc2ccc(O[C@@H]3CC[C@H](NC(=O)Nc4cc(C(C)(C)C)ncn4)c4ccccc43)cn12 [Example 14, 1-(6-(tert-Butyl)pyrimidin-4-yl)-3-((1S,4R)-4-((3-((S)-1,2-dimethylpyrrolidin-2-yl)-[1,2,4]triazolo[4,3-a]pyridin-6-yl)oxy)-1,2,3,4-tetrahydronaphthalen-1-yl)urea]
IC50 [1]: < 1 nM
IC50 [2]: < 1 nM

CCN(C)CCNC(=O)c1nc(NC(=O)N[C@H]2CC[C@@H](Oc3ccc4nnc(N(CC)CC)n4c3)c3ccccc32)cc(C(C)(C)C)n1 [Example 11, 4-(tert-Butyl)-6-(3-((1S,4R)-4-((3-(diethylamino)-[1,2,4]triazolo[4,3-a]pyridin-6-yl)oxy)-1,2,3,4-tetrahydronaphthalen-1-yl)ureido)-N-(2-(ethyl(methyl)amino)ethyl)pyrimidine-2-carboxamide]
IC50 [1]: 1 to 5 nM
IC50 [2]: < 1 nM

CCC(CC)c1nnc2ccc(O[C@@H]3CC[C@H](NC(=O)Nc4cc(C(C)(C)C)nc(C(=O)NCC(C)(C)N(C)C)n4)c4ccccc43)cn12 [Example 175, 4-(tert-butyl)-N-(2-(dimethylamino)-2-methylpropyl)-6-(3-((1S,4R)-4-((3-(pentan-3-yl)-[1,2,4]triazolo[4,3-a]pyridin-6-yl)oxy)-1,2,3,4-tetrahydronaphthalen-1-yl)ureido)pyrimidine-2-carboxamide formate salt]
IC50 [1]: 1 to 5 nM
IC50 [2]: < 1 nM

COCCN(C)CCNC(=O)c1cc(NC(=O)N[C@H]2CC[C@@H](Oc3ccc4nnc(C(C)(C)C)n4c3)c3ccccc32)cc(C(C)(C)C)n1 [Example 192, 6-(tert-butyl)-4-(3-((1S,4R)-4-((3-(tert-butyl)-[1,2,4]triazolo[4,3-a]pyridin-6-yl)oxy)-1,2,3,4-tetrahydronaphthalen-1-yl)ureido)-N-(2-((2-methoxyethyl)(methyl)-amino)ethyl)picolinamide]
IC50 [1]: 1 to 5 nM
IC50 [2]: 1 to 10 nM

CN1CCC[C@]1(C)c1nnc2ccc(O[C@@H]3CC[C@H](NC(=O)Nc4cc(C(C)(C)C)cc(C#N)n4)c4ccccc43)cn12 [Example 39, 1-(4-(tert-Butyl)-6-cyanopyridin-2-yl)-3-((1S,4R)-4-((3-((R)-1,2-dimethylpyrrolidin-2-yl)-[1,2,4]triazolo[4,3-a]pyridin-6-yl)oxy)-1,2,3,4-tetrahydronaphthalen-1-yl)urea]
IC50 [1]: < 1 nM
IC50 [2]: 1 to 10 nM

CC(C)(C)c1cc(NC(=O)N[C@H]2CC[C@@H](Oc3ccc4nnc(C(C)(C)C)n4c3)c3ccccc32)nc(C(=O)NCCCN2CCOCC2)n1 [Example 80, 4-(tert-butyl)-6-(3-((1S,4R)-4-((3-(tert-butyl)-[1,2,4]triazolo[4,3-a]pyridin-6-yl)oxy)-1,2,3,4-tetrahydronaphthalen-1-yl)ureido)-N-(3-morpholinopropyl)-pyrimidine-2-carboxamide]
IC50 [1]: 1 to 5 nM
IC50 [2]: 1 to 10 nM

COC(C)(C)c1nnc2ccc(O[C@@H]3CC[C@H](NC(=O)Nc4cc(C(C)(C)C)nc(C(=O)NCCCN5CCOCC5)n4)c4ccccc43)cn12 [Example 124]
IC50 [1]: 1 to 5 nM
IC50 [2]: 1 to 10 nM

Cc1ncc(C(C)(C)C)cc1NC(=O)N[C@H]1CC[C@@H](Oc2ccc3nnc([C@]4(C)CCCN4C)n3c2)c2ccccc21 [Example 50, 1-(5-(tert-Butyl)-2-methylpyridin-3-yl)-3-((1S,4R)-4-((3-((S)-1,2-dimethylpyrrolidin-2-yl)-[1,2,4]triazolo[4,3-a]pyridin-6-yl)oxy)-1,2,3,4-tetrahydronaphthalen-1-yl)urea]
IC50 [1]: < 1 nM
IC50 [2]: < 1 nM

CN1CCN(CCNC(=O)c2nc(NC(=O)N[C@H]3CC[C@@H](Oc4ccc5nnc(C(C)(C)C)n5c4)c4ccccc43)cc(C(C)(C)C)n2)CC1 [Example 119, 4-(tert-butyl)-6-(3-((1S,4R)-4-((3-(tert-butyl)-[1,2,4]triazolo[4,3-a]pyridin-6-yl)oxy)-1,2,3,4-tetrahydronaphthalen-1-yl)ureido)-N-(2-(4-methylpiperazin-1-yl)ethyl)pyrimidine-2-carboxamide]
IC50 [1]: > 5 nM
IC50 [2]: < 1 nM

C[C@@H]1CCC[C@H](C)N1c1nnc2ccc(O[C@@H]3CC[C@H](NC(=O)Nc4cc(C(C)(C)C)nc(C(=O)NCCN5CCOCC5)n4)c4ccccc43)cn12 [Example 18, 4-(tert-Butyl)-6-(3-((1S,4R)-4-((3-((2R,6S)-2,6-dimethylpiperidin-1-yl)-[1,2,4]triazolo[4,3-a]pyridin-6-yl)oxy)-1,2,3,4-tetrahydronaphthalen-1-yl)ureido)-N-(2-morpholinoethyl)pyrimidine-2-carboxamide]
IC50 [1]: 1 to 5 nM
IC50 [2]: < 1 nM

COCC(C)(C)c1nnc2ccc(O[C@@H]3CC[C@H](NC(=O)Nc4cc(C(C)(C)C)nc(C(=O)NCCN(C)CCO)n4)c4ccccc43)cn12 [Example 123, 4-(tert-butyl)-N-(2-((2-hydroxyethyl)(methyl)-amino)ethyl)-6-(3-((1S,4R)-4-((3-(1-methoxy-2-methylpropan-2-yl)-[1,2,4]triazolo[4,3-a]pyridin-6-yl)oxy)-1,2,3,4-tetrahydronaphthalen-1-yl)ureido)pyrimidine-2-carboxamide]
IC50 [1]: 1 to 5 nM
IC50 [2]: < 1 nM
